Earlier results in patent US6348502B1, “Formulations for the treatment of gastro-oesophageal reflux” (Reckitt & Colman Products Limited, priority 1998, dated 2002).

Columns and labels:
[1] = test system: capsaicin-sensitive neurones; conditions: rats; stimulation of capsaicin-sensitive neurones
[2] = test system: topical injury by noxious agents such as ethanol; conditions: white rabbits, administered at the gastro-oesophageal junction via cannulae
[3] = test system: acetic-acid induced gastric ulcers
gastric acid secretion = conditions: rats

COc1cc(CNC(=O)CCCC/C=C/C(C)C)ccc1O [capsaicin, (E)-(N)-[(4-hydroxy-3-methoxphenyl)-methyl]-8-methyl-6-nonenamide]
duodenal bicarbonate secretion [1]: increase duodenal bicarbonate secretion
mucosal protection against topical injury [2]: provides mucosal protection
protection of the gastric mucosa against experimental injury ([3]; acetic-acid induced gastric ulceration in rats): protects the gastric mucosa against experimental injury
healing of acetic-acid induced gastric ulcers ([3]; rats, introduced directly into an ex vivo chamber): promotes the healing
healing of acetic-acid induced gastric ulcers after prior administration of cimetidine ([3]; rats, prior administration of cimetidine): blunted
effect on gastric acid secretion (gastric acid secretion): no effect
